The values below come from US6875761B2 (Eisai Co., Ltd., priority 1997, dated 2005).

SMILES strings stand for the structures. Counter-ions that a name gives are not always drawn.

A word on the melting point: it is the temperature, or range, at which the solid turns liquid.

`CCN1CCN(c2nc(-c3cccc(CCCO)c3)cc3ccccc23)CC1` (as salt: hydrochloride) [Example 418, 1-(4-ethylpiperazin-1-yl)-3-[3-(3-hydroxypropyl)phenyl]isoquinoline] gave a melting point of 101 to 103 °C.
In turn, `C=CCN1CCN(c2nc(-c3ccc(OC)cc3)cc3ccccc23)CC1` (as salt: hydrochloride) [Example 240, 1-(1-allylpiperazin-4-yl)-3-(4-methoxyphenyl)isoquinoline dihydrochloride] registered a melting point of 111 to 116 °C.
`CN1CCN(c2nc(-c3ccc(OCCO)cc3)cc3ccccc23)CC1` (as salt: hydrochloride) [Example 3, 1-(1-methylpiperazin-4-yl)-3-[4-(2-hydroxyethoxy)phenyl]isoquinoline]: the melting point fell in the range of 131 to 144 °C.
With `CCN1CCN(c2nc(/C=C/c3ccc(OC)cc3)cc3ccccc23)CC1` (as salt: hydrochloride) [Example 190, 1-(1-Ethylpiperazin-4-Yl)-3-[Trans-2-(4-Methoxyphenyl)Ethenyl]Isoquinoline Dihydrochloride], the melting point was 227 °C (dec.).
The compound `CCN1CCN(c2nc(-c3ccc(O)cc3)cc3sccc23)CC1` (as salt: hydrochloride) gave a melting point of 173 to 175 °C.
As for `CCN1CCN(c2nc(-c3ccc(OC)c(OC)c3)cc3ccccc23)CC1` (as salt: hydrochloride) [Example 14, 3-(3,4-dimethoxyphenyl)-1-(4-ethylpiperazin-1-yl)isoquinoline Dihydrochloride], the figure is 125 to 126.5 °C; as for `CCN1CCN(c2nc(-c3ccc(OCCCC#N)cc3)cc3ccccc23)CC1` (as salt: hydrochloride) [Example 53, 3-[4-(3-Cyanopropoxy)Phenyl]-1-(4-Ethylpiperazin-1-Yl)Isoquinoline Hydrochloride], 144 to 146 °C.
Compound `CCN1CCN(c2nc(-c3ccc(CN4CCSCC4)cc3)cc3ccccc23)CC1` (as salt: hydrochloride) [Example 94, 3-(4-Thiomorpholinylmethylphenyl)-1-(4-ethylpiperazin-1-yl)isoquinoline Hydrochloride] came in with a melting point of 193 to 197 °C.
For the compound `CCN1CCN(c2nc(C3=CCCc4cc(OC)ccc43)cc3ccccc23)CC1` (as salt: oxalate) [Example 117, 3-(7-Methoxy-1,2-dihydronaphthalen-4-yl)-1-(4-ethylpiperazin-1-yl)isoquinoline Oxalate], the melting point lay in the range of 112 to 114 °C.
`OCCOc1ccc(-c2cc3sccc3c(N3CCN(CCF)CC3)n2)cc1` (as salt: hydrochloride) [Example 295, 4-[4-(2-fluoroethyl)piperazin-1-yl]-6-[4-(2-hydroxyethoxy)phenyl]thieno[3,2-c]pyridine] showed a melting point of 138 to 140 °C.
For the compound `CCN1CCN(c2nc(-c3ccc(C(=O)NC)cc3)cc3ccsc23)CC1` (as salt: hydrochloride), the melting point lay in the range of 150.5 to 152 °C.
In the case of `CCN1CCN(c2nc(-c3ccc(OC[C@@H](C)O)cc3)cc3ccccc23)CC1` (as salt: hydrochloride) [Example 403, 1-(4-ethylpiperazin-1-yl)-3-[4-(2-hydroxypropoxy)phenyl]isoquinoline Dihydrochloride], the melting point was in the range of 112 to 114 °C.
The compound `CCN1CCN(c2nc(-c3ccc(C4=CCOCC4)cc3)cc3ccccc23)CC1` (as salt: hydrochloride) [Example 84, 3-[4-(5,6-Dihydro-2H-pyran-4-yl)phenyl]-1-(4-ethylpiperazin-1-yl)isoquinoline Hydrochloride] yielded a melting point of 170 to 172 °C.
In turn, `CCN1CCN(c2nc(-c3ccc(CCCO)cc3)cc3ccccc23)CC1` (as salt: hydrochloride) [Example 20, 1-(4-ethylpiperazin-1-yl)-3-[4-(3-hydroxypropyl)phenyl]isoquinoline hydrochloride] came in with a melting point of 116 to 119 °C.
With `CCN1CCN(c2nc(-c3ccc(CC(C)CO)cc3)cc3ccsc23)CC1` (stereo not shown) (as salt: hydrochloride) [Example 441, 7-(4-ethylpiperazin-1-yl)-5-[4-(3-hydroxy-2-methylpropyl)phenyl]thieno[2,3-c]pyridine dihydrochloride], the melting point was 108 to 110 °C.
To `CCN1CCN(c2nc(-c3ccc(CO)c(F)c3)cc3ccccc23)CC1` (as salt: hydrochloride) [Example 28, 1-(4-ethylpiperazin-1-yl)-3-[4-(4-hydroxymethyl-3-fluoro)phenyl]isoquinoline hydrochloride] belongs 228 °C (dec.); to `CCS(=O)(=O)NCc1ccc(-c2cc3ccccc3c(N3CCN(CCO)CC3)n2)cc1` (as salt: hydrochloride) [Example 243, 3-(4-ethylsulfonylaminomethylphenyl)-1-[4-(2-hydroxyethyl)piperazin-1-yl]isoquinoline Hydrochloride], 171 to 174 °C.
`CCN1CCN(c2nc(-c3ccc(CC(C)(C)CO)cc3)cc3ccsc23)CC1` (as salt: hydrochloride) [Example 442, 7-(4-ethylpiperazin-1-yl)-5-[4-(3-hydroxy-2,2-dimethylpropyl)phenyl]thieno[2,3-c]pyridine dihydrochloride] showed a melting point of 113 to 114 °C.
On to `CCN1CCN(c2nc(-c3ccc(CC4CCOCC4)cc3)cc3ccccc23)CC1` (as salt: hydrochloride) [Example 399, 1-(4-Ethylpiperazin-1-yl)-3-[4-(tetrahydropyran-4-yl)Methylphenyl]Isoquinoline Dihydrochloride], for which the melting point is 182 to 184 °C (dec.).
To `CCN1CCN(c2nc(-c3ccc([C@H]4CC[C@H](O)CC4)cc3)cc3ccccc23)CC1` (as salt: hydrochloride) [Example 398, 1-(4-Ethylpiperazin-1-yl)-3-[4-(trans-4-Hydroxycyclohexyl)Phenyl]Isoquinoline Dihydrochloride] belongs 157 to 158 °C (dec.); to `CCN1CCN(c2nc(-c3ccc(N4CCC(O)CC4)cc3)cc3ccccc23)CC1` (as salt: hydrochloride) [Example 97, 1-(4-Ethylpiperazin-1-yl)-3-[4-(4-hydroxypiperidin-1-yl)phenyl]isoquinoline Trihydrochloride], 178 °C; to `CCN1CCN(c2nc(-c3ccc(N(C)C)cc3)cc3ccccc23)CC1` (as salt: hydrochloride) [Example 66, 3-[4-(N,N-Dimethylamino)Phenyl]-1-(4-Ethylpiperazin-1-Yl)Isoquinoline Dihydrochloride], 160 to 162 °C (dec.).
Turning to `CCN1CCN(c2nc(-c3csc(C4=CCOCC4)c3)cc3ccccc23)CC1` (as salt: hydrochloride), the melting point is 190 to 193 °C.
As to `CCOc1ccc(-c2cc3ccccc3c(N3CCN(CC)CC3)n2)cc1.Cl.Cl`, the melting point was 197 to 198 °C (dec.).
Compound `CCN1CCN(c2nc(-c3ccc(OCCCN)cc3)cc3ccccc23)CC1` (as salt: hydrochloride) returned a melting point of 173 to 176 °C.
Compound `CCN1CCN(c2nc(-c3ccc(S(=O)(=O)N(C)C)cc3)cc3ccccc23)CC1` (as salt: hydrochloride) [Example 362, 1-(4-ethylpiperazin-1-yl)-3-[4-(N,N-dimethylsulfamoyl)phenyl]isoquinoline dihydrochloride] displayed a melting point of 155 to 156 °C.
The compound `CCN1CCN(c2nc(C3=CCCc4c(OC)cccc43)cc3ccccc23)CC1` (as salt: oxalate) came in with a melting point of 136 to 139 °C.
`COc1ccc(-c2cc3ccccc3c(NCCc3ccccn3)n2)cc1.Cl` registered a melting point of 138 to 140 °C.
`CCN1CCN(c2nc(-c3ccc(OCCO)cc3)cc3cc(F)ccc23)CC1` (as salt: hydrochloride) [Example 223, 1-(4-ethylpiperazin-1-yl)-3-[4-(2-hydroxyethoxy)phenyl]-6-fluoroisoquinoline dihydrochloride]: the melting point is 152 to 170 °C.
In turn, `CCN1CCN(c2nc(-c3ccc(SC[C@@H](C)O)cc3)cc3ccsc23)CC1` (as salt: hydrochloride) [Example 444, 7-(4-ethylpiperazin-1-yl)-5-[4-(2-hydroxypropylthio)phenyl]thieno[2,3-c]pyridine dihydrochloride] displayed a melting point of 98.5 to 99.5 °C.
As to `CCN1CCN(c2nc(-c3ccc4c(c3)CCC4=O)cc3ccccc23)CC1` (as salt: hydrochloride) [Example 414, 1-(4-ethylpiperazin-1-yl)-3-(1-indanon-5-yl)isoquinoline], the melting point was 233 °C (dec.).
`CCN1CCN(c2nc(Sc3ccccc3)cc3ccccc23)CC1` (as salt: oxalate) [Example 374, 1-(4-ethylpiperazin-1-yl)-3-(phenylthio)isoquinoline oxalate] came in with a melting point of 181.5 to 183 °C.
`CCC(O)c1ccc(-c2cc3ccccc3c(N3CCN(CC)CC3)n2)cc1` (stereo not shown) (as salt: hydrochloride) [Example 19, 1-(4-ethylpiperazin-1-yl)-3-[4-(1-hydroxypropyl)phenyl]isoquinoline hydrochloride] registered a melting point of 143 to 144 °C.
The compound `CCNS(=O)(=O)c1ccc(-c2cc3ccccc3c(N3CCN(CC)CC3)n2)cc1` (as salt: hydrochloride) [Example 357, 1-(4-ethylpiperazin-1-yl)-3-[4-(N-ethylsulfamoyl)phenyl]isoquinoline dihydrochloride] had a melting point of 147 to 149 °C.
For `CCN1CCN(c2nc(Sc3ccccn3)cc3ccccc23)CC1` (as salt: oxalate) [Example 378, 1-(4-Ethylpiperazin-1-yl)-3-(2-Pyridylthio)Isoquinoline Oxalate], the melting point is 178 to 181 °C (dec.).
The compound `CCN1CCN(c2nc(-c3ccc(S(=O)(=O)NC)cc3)cc3ccccc23)CC1` (as salt: hydrochloride) [Example 361, 1-(4-ethylpiperazin-1-yl)-3-[4-(N-methylsulfamoyl)phenyl]isoquinoline dihydrochloride] displayed a melting point of 170 to 172 °C.
`CCN1CCN(c2nc(-c3ccc(C(C)O)cc3)cc3sccc23)CC1` (stereo not shown) (as salt: oxalate) [Example 281, 4-(4-ethylpiperazin-1-yl)-6-[4-(1-hydroxyethyl)phenyl]thieno[3,2-c]pyridine oxalate] registered a melting point of 134 to 135 °C.
